According to paper PMC10303200 (ACS Central Science, 2023):

How the values were obtained:
Assay type in all cases: binding
[1] = target: T1, DC-SIGN CRD (Homo sapiens, UniProt Q9NNX6); experiment: Direct native ESI-MS (submicron emitters) with a mixture of ten glycans (G2, G5, G10, G14-G20), 200 mM ammonium acetate with 2.5 mM calcium salt, pH 7.4.; design: gene CD209; carbohydrate recognition domain, residues 250-404, MW 17 794 Da; conditions: SD, n = 6; read-out: Kd (nMS), Table S5
T1 sequence (Q9NNX6 250-404): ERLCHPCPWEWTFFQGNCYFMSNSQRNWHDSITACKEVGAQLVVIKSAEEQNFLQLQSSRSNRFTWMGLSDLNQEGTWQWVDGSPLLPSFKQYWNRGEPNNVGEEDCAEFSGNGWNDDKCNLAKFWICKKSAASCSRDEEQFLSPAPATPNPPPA

[2] = target: T1, DC-SIGN CRD; experiment: COIN-nMS (submicron emitters) with a mixture of ten glycans (G2, G5, G10, G14-G20), 200 mM ammonium acetate with 2.5 mM calcium salt, pH 7.4.; design: gene CD209; carbohydrate recognition domain, residues 250-404, MW 17 794 Da; conditions: SD, n = 6; read-out: Kd (COIN-nMS), Table S5
[3] = target: MAA (Maackia amurensis agglutinin); experiment: COIN-CaR-nMS; conditions: native and all α2-3-linked N-glycan natural libraries and purified 3SL, 3SLN; pH 6.9
[4] = target: T1, DC-SIGN CRD; experiment: direct nMS affinity measurement; design: The carbohydrate recognition domain (CRD) of DC-SIGN (residues 250–404, MW 17 794 Da); made in house; conditions: glycans present as a mixture (G2, G5, G10, G14-G20); pH 7.4
[5] = target: T1, DC-SIGN CRD; experiment: COIN-nMS affinity measurement; design: The carbohydrate recognition domain (CRD) of DC-SIGN (residues 250–404, MW 17 794 Da); made in house; conditions: glycans present as a mixture (G2, G5, G10, G14-G20); average of six measurements; pH 7.4; read-out: Kd (COIN-nMS)
[6] = target: T2, GAL-7 (Homo sapiens, UniProt P47929); experiment: Direct native ESI-MS of the GAL-7 homodimer with a mixture of ten glycans (G2, G5-G13), 200 mM ammonium acetate, pH 6.9.; conditions: SD, n = 8; read-out: Kd (nMS), Table S4
T2 construct: gene LGALS7; homodimer (monomer MW 14.94 kDa)

[7] = target: T2, GAL-7; experiment: COIN-nMS of the GAL-7 homodimer with a mixture of ten glycans (G2, G5-G13), 200 mM ammonium acetate, pH 6.9.; conditions: SD, n = 8; read-out: Kd (COIN-nMS), Table S4
[8] = target: T3, GAL-3C (Homo sapiens, UniProt P17931); experiment: COIN-nMS with a mixture of ten glycans (G2, G5-G13), 200 mM ammonium acetate, pH 6.9.; design: gene LGALS3; C-terminal carbohydrate recognition domain fragment, residues 107-250; conditions: SD, n = 8; read-out: Kd (COIN-nMS), Table S3
[9] = target: T3, GAL-3C; experiment: Direct native ESI-MS with a mixture of ten glycans (G2, G5-G13), 200 mM ammonium acetate, pH 6.9.; design: gene LGALS3; C-terminal carbohydrate recognition domain fragment, residues 107-250; conditions: SD, n = 8; read-out: Kd (nMS), Table S3

T3 sequence (P17931 107-250): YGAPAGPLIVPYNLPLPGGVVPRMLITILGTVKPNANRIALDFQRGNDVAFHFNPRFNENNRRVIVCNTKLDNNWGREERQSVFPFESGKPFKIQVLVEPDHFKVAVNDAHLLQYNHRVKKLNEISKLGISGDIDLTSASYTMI
T2 sequence (P47929 whole entry): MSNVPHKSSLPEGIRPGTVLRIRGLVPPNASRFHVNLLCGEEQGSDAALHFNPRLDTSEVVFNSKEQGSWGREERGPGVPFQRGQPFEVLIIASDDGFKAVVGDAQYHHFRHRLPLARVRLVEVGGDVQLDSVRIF

OC[C@H]1O[C@H](OC[C@H]2O[C@H](OC[C@H]3OC(O)[C@@H](O)[C@@H](O[C@H]4O[C@H](CO)[C@@H](O)[C@H](O)[C@@H]4O[C@H]4O[C@H](CO)[C@@H](O)[C@H](O)[C@@H]4O)[C@@H]3O)[C@@H](O)[C@@H](O[C@H]3O[C@H](CO)[C@@H](O)[C@H](O)[C@@H]3O)[C@@H]2O)[C@@H](O)[C@@H](O)[C@@H]1O (stereo partly drawn) [G16, α-D-Man-(1→3)[α-D-Man(1→6)]-α-D-Man(1→6)[α-D-Man(1→2)-α-D-Man-(1→3)]-α-D-Man] was tested, and the Kd [1] was 810 µM and the Kd [2] was 560 µM.

With CC(=O)N[C@H]1[C@H](O[C@H]2[C@H](O)[C@@H](NC(C)=O)C(O)O[C@@H]2CO)O[C@H](CO)[C@@H](O[C@@H]2O[C@H](CO[C@H]3O[C@H](CO)[C@@H](O)[C@H](O)[C@@H]3O[C@@H]3O[C@H](CO)[C@@H](O[C@@H]4O[C@H](CO[C@]5(C(=O)O)C[C@H](O)[C@@H](NC(C)=O)[C@H]([C@H](O)[C@H](O)CO)O5)[C@H](O)[C@H](O)[C@H]4O)[C@H](O)[C@H]3NC(C)=O)[C@@H](O)[C@H](O[C@H]3O[C@H](CO)[C@@H](O)[C@H](O)[C@@H]3O[C@@H]3O[C@H](CO)[C@@H](O[C@@H]4O[C@H](CO[C@]5(C(=O)O)C[C@H](O)[C@@H](NC(C)=O)[C@H]([C@H](O)[C@H](O)CO)O5)[C@H](O)[C@H](O)[C@H]4O)[C@H](O)[C@H]3NC(C)=O)[C@@H]2O)[C@@H]1O (stereo partly shown) [HexNAc4Hex5NeuAc2] the Kd [3] was 0.52 ± 0.2 µM.

“α-D-Man-(1→2)-α-D-Man-(1→3)-[α-D-Man-(1→6)-[α-D-Man-(1→2)-α-D-Man-(1→3)]-α-D-Man [Glycan G15]” was tested, and the Kd [4] was 390 ± 50 µM and the Kd [5] was 410 ± 40 µM.

CC(=O)N[C@H]1[C@H](O[C@H]2[C@H](O)[C@@H](NC(C)=O)C(O)O[C@@H]2CO[C@@H]2O[C@@H](C)[C@@H](O)[C@@H](O)[C@@H]2O)O[C@H](CO)[C@@H](O[C@@H]2O[C@H](CO[C@H]3O[C@H](CO)[C@@H](O)[C@H](O)[C@@H]3O[C@@H]3O[C@H](CO)[C@@H](O[C@@H]4O[C@H](CO)[C@H](O)[C@H](O)[C@H]4O)[C@H](O)[C@H]3NC(C)=O)[C@@H](O)[C@H](O[C@H]3O[C@H](CO)[C@@H](O)[C@H](O)[C@@H]3O[C@@H]3O[C@H](CO)[C@@H](O[C@@H]4O[C@H](CO[C@]5(C(=O)O)C[C@H](O)[C@@H](NC(C)=O)[C@H]([C@H](O)[C@H](O)CO)O5)[C@H](O)[C@H](O)[C@H]4O)[C@H](O)[C@H]3NC(C)=O)[C@@H]2O)[C@@H]1O (stereo partly shown) [HexNAc4Hex5Fuc1NeuAc1] was tested, and the Kd [3] was 0.57 ± 0.16 µM.

CC(=O)N[C@H]1[C@H](O[C@H]2[C@@H](O)[C@@H](CO)OC(O)[C@@H]2O)O[C@H](CO)[C@@H](O[C@@H]2O[C@@H](C)[C@@H](O)[C@@H](O)[C@@H]2O)[C@@H]1O[C@@H]1O[C@H](CO)[C@H](O)[C@H](O)[C@H]1O[C@@H]1O[C@@H](C)[C@@H](O)[C@@H](O)[C@@H]1O (stereo partly shown) [G17, blood group antigen G17] was tested, and the Kd [1] was 620 µM and the Kd [2] was 550 µM.

For OC[C@H]1O[C@H](OC[C@H]2O[C@H](OC[C@H]3OC(O)[C@@H](O)[C@@H](O)[C@@H]3O)[C@@H](O)[C@@H](O[C@H]3O[C@H](CO)[C@@H](O)[C@H](O)[C@@H]3O)[C@@H]2O)[C@@H](O)[C@@H](O)[C@@H]1O (stereo partly shown) [G19, oligomannose glycan G19], the Kd [1] was 1180 µM and the Kd [2] was 1500 µM.

CC(=O)N[C@H]1[C@H](O[C@H]2[C@H](O)[C@@H](NC(C)=O)C(O)O[C@@H]2CO)O[C@H](CO)[C@@H](O[C@@H]2O[C@H](CO[C@H]3O[C@H](CO)[C@@H](O)[C@H](O)[C@@H]3O[C@@H]3O[C@H](CO)[C@@H](O[C@@H]4O[C@H](CO[C@]5(C(=O)O)C[C@H](O)[C@@H](NC(=O)CO)[C@H]([C@H](O)[C@H](O)CO)O5)[C@H](O)[C@H](O)[C@H]4O)[C@H](O)[C@H]3NC(C)=O)[C@@H](O)[C@H](O[C@H]3O[C@H](CO)[C@@H](O)[C@H](O)[C@@H]3O[C@@H]3O[C@H](CO)[C@@H](O[C@@H]4O[C@H](CO[C@]5(C(=O)O)C[C@H](O)[C@@H](NC(=O)CO)[C@H]([C@H](O)[C@H](O)CO)O5)[C@H](O)[C@H](O)[C@H]4O)[C@H](O)[C@H]3NC(C)=O)[C@@H]2O)[C@@H]1O (stereo partly shown) [HexNAc4Hex5NeuGc2] gave a Kd [3] of 0.49 ± 0.2 µM.

CC(=O)N[C@H]1[C@@H](O[C@H]2[C@@H](O)[C@@H](CO)O[C@@H](O[C@H]3[C@H](O)[C@@H](NC(C)=O)C(O)O[C@@H]3CO)[C@@H]2O[C@@H]2O[C@@H](C)[C@@H](O)[C@@H](O)[C@@H]2O)O[C@H](CO)[C@H](O)[C@@H]1O (stereo partly drawn) [G10, α-D-GalNAc(1→3)-[α-L-Fuc(1→2)]-β-D-Gal(1→4)-D-GlcNAc] was tested, and the Kd [6] was 731 µM, the Kd [1] was 6010 µM and the Kd [2] was 2920 µM. For the same compound, the Kd [7] was 437 µM, the Kd [8] was 10.9 µM and the Kd [9] was 17.9 µM.

Compound OC[C@H]1O[C@H](O[C@@H]2[C@H](O)[C@@H](OC[C@H]3OC(O)[C@@H](O)[C@@H](O[C@H]4O[C@H](CO)[C@@H](O)[C@H](O)[C@@H]4O[C@H]4O[C@H](CO)[C@@H](O)[C@H](O)[C@@H]4O[C@H]4O[C@H](CO)[C@@H](O)[C@H](O)[C@@H]4O)[C@@H]3O)O[C@H](CO[C@H]3O[C@H](CO)[C@@H](O)[C@H](O)[C@@H]3O[C@H]3O[C@H](CO)[C@@H](O)[C@H](O)[C@@H]3O)[C@H]2O)[C@@H](O)[C@@H](O)[C@@H]1O (stereo partly drawn) [G14, α-D-Man-(1→2)-α-D-Man-(1→6)-[α-D-Man-(1→3)]-α-D-Man-(1→6)-[α-D-Man-(1→2)-α-D-Man-(1→2)-α-D-Man-(1→3)]-α-D-Man] has a Kd [1] of 270 µM and a Kd [2] of 260 µM.

OC[C@H]1O[C@H](O[C@H]2[C@H](O)[C@@H](O)[C@@H](O[C@H]3[C@H](O)[C@@H](O)[C@@H](O[C@H]4[C@H](O)[C@@H](O)[C@@H](O[C@H]5[C@H](O)[C@@H](O)C(O)O[C@@H]5CO)O[C@@H]4CO)O[C@@H]3CO)O[C@@H]2CO)[C@H](O)[C@@H](O)[C@@H]1O (stereo partly shown) [G20, maltopentaose] showed a Kd [1] of 2410 µM and a Kd [2] of 1830 µM.

For CC(=O)N[C@H]1[C@H](O[C@H]2[C@@H](O)[C@@H](CO)O[C@@H](O[C@H]3[C@H](O)[C@@H](O)C(O)O[C@@H]3CO)[C@@H]2O)O[C@H](CO)[C@@H](O[C@@H]2O[C@H](CO)[C@H](O)[C@H](O[C@H]3O[C@H](CO)[C@H](O)[C@H](O)[C@H]3O)[C@H]2O[C@@H]2O[C@@H](C)[C@@H](O)[C@@H](O)[C@@H]2O)[C@@H]1O (stereo partly shown) [G18, blood group antigen G18], the Kd [1] was 3330 µM and the Kd [2] was 1870 µM.

For CC(=O)N[C@H]1[C@@H](O[C@H]2[C@@H](O)[C@@H](CO)O[C@@H](O[C@H]3[C@H](O)[C@@H](CO)O[C@@H](O[C@H]4[C@@H](O)[C@@H](CO)O[C@@H](O[C@H]5[C@H](O)[C@@H](O)C(O)O[C@@H]5CO)[C@@H]4O)[C@@H]3NC(C)=O)[C@@H]2O[C@@H]2O[C@@H](C)[C@@H](O)[C@@H](O)[C@@H]2O)O[C@H](CO)[C@H](O)[C@@H]1O (stereo partly drawn) [G13, α-D-GalNAc-(1→3)-[α-L-Fuc-(1→2)]-β-D-Gal-(1→3)-β-D-GlcNAc-(1→3)-β-D-Gal-(1→4)-β-D-Glc], the Kd [6] was 261 µM, the Kd [7] was 261 µM and the Kd [8] was 2.4 µM. The Kd [9] was 4.6 µM.

Compound CC(=O)N[C@H]1[C@H](O[C@H]2[C@H](O)[C@@H](NC(C)=O)C(O)O[C@@H]2CO[C@@H]2O[C@@H](C)[C@@H](O)[C@@H](O)[C@@H]2O)O[C@H](CO)[C@@H](O[C@@H]2O[C@H](CO[C@H]3O[C@H](CO)[C@@H](O)[C@H](O)[C@@H]3O[C@@H]3O[C@H](CO)[C@@H](O[C@@H]4O[C@H](CO[C@]5(C(=O)O)C[C@H](O)[C@@H](NC(C)=O)[C@H]([C@H](O)[C@H](O)CO)O5)[C@H](O)[C@H](O)[C@H]4O)[C@H](O)[C@H]3NC(C)=O)[C@@H](O)[C@H](O[C@H]3O[C@H](CO)[C@@H](O)[C@H](O)[C@@H]3O[C@@H]3O[C@H](CO)[C@@H](O[C@@H]4O[C@H](CO[C@]5(C(=O)O)C[C@H](O)[C@@H](NC(C)=O)[C@H]([C@H](O)[C@H](O)CO)O5)[C@H](O)[C@H](O)[C@H]4O)[C@H](O)[C@H]3NC(C)=O)[C@@H]2O)[C@@H]1O (stereo partly shown) [HexNAc4Hex5Fuc1NeuAc2] has a Kd [3] of 0.39 ± 0.08 µM.
